Reference: BindingDB's records for patent US12570675 (LG Chem, 2026)

Key:
[1] = target: T1, Proteasome subunit beta type-5 (Homo sapiens, UniProt P28074); assay: Proteasome Activity Inhibition
T1 sequence (P28074 whole entry): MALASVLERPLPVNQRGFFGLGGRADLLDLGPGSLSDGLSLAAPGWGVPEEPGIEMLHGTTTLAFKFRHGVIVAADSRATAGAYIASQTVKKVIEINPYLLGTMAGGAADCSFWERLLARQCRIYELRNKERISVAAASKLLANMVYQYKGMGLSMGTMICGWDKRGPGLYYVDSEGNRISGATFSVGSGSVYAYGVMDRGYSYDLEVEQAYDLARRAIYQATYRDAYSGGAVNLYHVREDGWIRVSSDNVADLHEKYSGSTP
Description: (§1) RPMI8226 cells, which is a multiple myeloma cell line, were cultured and then separated by a centrifuge, and washed twice with phosphate buffered saline (PBS). 20 mM of a tris-HCl (pH 8.0) buffer solution was added to the washed cells, and the cells were disrupted by a homogenizer and centrifuged to obtain S26 protein from the supernatant. Suc-Leu-Leu-Val-Tyr-AMC, for a fluorogenic substrate for the chymotrypsin-like activity of the proteasome, and Z-Leu-Leu-Glu-AMC, for a fluorogenic substrate for the caspase-like activity, were purchased from Calbiochem, EMD Millipore and used. Into each well of a 96-well plate (opaque, black round bottom), 20 ul of the S26 protein (final RPMI8226 cell extract concentration: 2 ug/well), 10 ul of S26 proteasome inhibitor serially diluted from 10 uM (final DMSO concentration: 0.5%), and 20 ul of the fluorogenic substrate for the proteasome chymotrypsin-like or caspase-like activity (final concentration: 20 uM) were added and mixed and allowed to react in a 37° C. incubator for 90 minutes. The fluorescence of the fluorogenic substrate was measured by FlexStation II Fluorometer (Molecular Devices). The fluorescence inhibited by the compound diluted at each concentration was measured as the relative percentage value for the amount obtained from the treatment only with the S26 protein and the fluorogenic substrate.

[2] = target: T2, Proteasome subunit beta type-6 (Homo sapiens, UniProt P28072); assay: Proteasome Activity Inhibition
T2 sequence (P28072 whole entry): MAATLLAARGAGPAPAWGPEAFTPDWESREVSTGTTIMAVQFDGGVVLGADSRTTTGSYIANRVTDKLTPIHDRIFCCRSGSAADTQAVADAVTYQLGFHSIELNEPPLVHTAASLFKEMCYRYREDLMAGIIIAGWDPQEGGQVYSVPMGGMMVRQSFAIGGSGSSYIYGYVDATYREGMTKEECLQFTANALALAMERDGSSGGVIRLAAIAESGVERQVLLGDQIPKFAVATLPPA
Description: as §1

SMILES | IC50 [1] [nM] | IC50 [2] [nM]
COc1ccc(Cl)cc1-c1cccc(C2=NOC(Cc3ccccc3)(C(=O)N[C@@H](CC(C)C)B(O)O)C2)c1 (stereo partly drawn) [US12570675, Example 35] | < 500 | 
CC(C)C[C@H](NC(=O)C1CC(CNc2ccccn2)=NO1)B(O)O (stereo partly drawn) [US12570675, Example 60] | < 250 | 
CC(C)C[C@H](NC(=O)C1CC(CNC(=O)C2Cc3ccccc3C2)=NO1)B(O)O (stereo partly drawn) [US12570675, Example 78] | < 50 | 
CC(C)C[C@H](NC(=O)C1CC(CNC(=O)C2CCCc3ccccc32)=NO1)B(O)O (stereo partly drawn) [US12570675, Example 80] | < 25 | > 500
CC(C)C[C@H](NC(=O)C1(Cc2ccccc2)CC(CNC(=O)c2cn(C(C)C)c3ccccc23)=NO1)B(O)O (stereo partly drawn) [US12570675, Example 209] | < 10 | 
CC[C@H](NC(=O)C1(Cc2ccccc2)CC(CNC(=O)c2ccccc2)=NO1)B(O)O (stereo partly drawn) [US12570675, Example 293] | < 25 | > 500
